# Source: US10604535B2, “Compounds, compositions and methods” (Denali Therapeutics Inc., priority 2016, dated 2020)
# Key:
# GST-hRIPK1 (8-327) [1] = biological target: T1, GST-hRIPK1 (8-327) (Homo sapiens (Human), UniProt Q13546); experiment: Fluorescent Polarization Binding (FP Binding) assay
# [2] = male, Sprague-Dawley Crl:CD(SD), in vivo, iv
# [3] = male, cynomolgus monkey, in vivo, iv
# [4] = test system: human cryopreserved hepatocytes; experiment: Metabolic stability (hepatocytes); settings: human cryopreserved hepatocytes
# Method: The metabolic stability of compounds was evaluated in human cryopreserved hepatocytes (BioreclamationlVT, NY, USA) in duplicate. Test articles (or controls) were added to a 24-well incubation plate (Becton Dickinson Labware, USA) containing 0.5×10^6 hepatocytes/mL in suspension. The plate was held at 37° C. and agitated with constant orbital shaking (orbital speed at 350 rpm). At each time point (0, 5, 10, 15, 20, 30, 45, 60, 90, 120, 150 and 180 min) a Tecan Evo robot aspirated 50 μL of the incubation mixture and 100 μL of acetonitrile containing internal standard to quench the reaction. […] Samples were centrifuged (3000 rpm for 10 minutes) and the plate sealed prior to injection onto an LC-MS/MS system.
# The appropriate parent/daughter ions were monitored for the test article and IS with the LC-MS/MS system. The intrinsic clearance (Clint; expressed μL/min/million cells) was determined from the first order elimination constant (k, min^−1) of test article decay and the volume of the incubation. […] The intrinsic organ CL was then converted to the hepatic clearance (CLhep) using the well-stirred model as shown below, where Qh is human hepatic blood flow.
# Hepatic clearance is expressed as mL/min/kg. The hepatic clearance relates to the flow of blood through the liver that is completely cleared of the compound.
# GST-hRIPK1 (8-327) [5] = biological target: T1, GST-hRIPK1 (8-327); experiment: ADP-Glo kinase assay; assay type: biochemical
# Method: GST-hRIPK1 (8-327) enzyme was generated by Proteros GmbH by Baculovirus expression system.
# Test compounds were diluted in DMSO and 0.1 μL of solution was dispensed to each well of a 384-well white solid microplate. The assay buffer was 50 mM HEPES pH 7.5, 50 mM NaCl, 30 mM MgCl2. The buffer was supplemented with 0.02% CHAPS, 0.01% of Pluronic F127, 0.1 mg/mL BSA and 1 mM DTT. MnCl2, 5 mM, was included in the assay buffer on the day of the experiment. The enzymatic reaction comprised 1.5 μg/mL GST-hRIPK1 (8-327) and 50 μM ATP for receptor interacting protein kinase 1 and 15 μM ATP. 5 μL of enzyme and 5 μL of ATP were added to the plate at twice the final assay concentration and incubated at room temperature for 3 hours. Following this reaction, 10 μL of ADP-Glo reagent (Promega) was added to each well and incubated for 40 min at room temperature. This stops the kinase reaction and depletes any remaining ATP. 20 μL of ADP-Glo detection reagent was then added to each well and incubated at room temperature for at least 15 minutes. The detection reagent converts ADP to ATP and introduces luciferase and luciferin to detect ATP. The luminescence is then measured with the Envision (PerkinElmer) plate reader. Test compound inhibition was expressed as percent inhibition of internal assay controls. For concentration response curves, normalized data is fit and IC50 determined using XL-fit (IDBS) for Excel. The IC50 were averaged to determine a mean value, for a minimum of two independent experiments.
# Test compound inhibition was expressed as percent inhibition of internal assay controls. For concentration response curves, normalized data is fit and IC50 determined using XL-fit (IDBS) for Excel. The IC50 were averaged to determine a mean value, for a minimum of two independent experiments.
# [6] = test system: FADD-deficient Jurkat cells; experiment: Cellular necroptosis assay (human TNFα-induced necrosis, CellTiter-Glo); assay type: cell-based; settings: Homo sapiens, Jurkat, 48 h, TNFα 10 ng/mL, read-out: Cell IC50
# T1 sequence (Q13546 8-327): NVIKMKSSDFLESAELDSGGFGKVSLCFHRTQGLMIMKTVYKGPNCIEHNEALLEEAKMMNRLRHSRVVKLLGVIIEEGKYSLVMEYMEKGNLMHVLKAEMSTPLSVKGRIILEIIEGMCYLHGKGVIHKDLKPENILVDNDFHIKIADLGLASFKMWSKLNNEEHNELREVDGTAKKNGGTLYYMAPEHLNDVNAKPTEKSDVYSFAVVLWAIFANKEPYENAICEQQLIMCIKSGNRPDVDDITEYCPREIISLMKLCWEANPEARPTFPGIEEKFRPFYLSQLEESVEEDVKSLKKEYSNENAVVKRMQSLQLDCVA
IC50 (GST-hRIPK1 (8-327) [1]),Human hepatocyte CLhep Avg [4],IC50 (GST-hRIPK1 (8-327) [5]),SMILES,further results
0.1 to 1000 nM,4.9 mL/min/kg,–,"C[C@H]1Oc2cccnc2N(C)C(=O)[C@H]1NC(=O)c1nnc(Cc2ccccc2)[nH]1 [Example 94, 5-benzyl-N-((2R,3S)-2,5-dimethyl-4-oxo-2,3,4,5-tetrahydropyrido[3,2-b][1,4]oxazepin-3-yl)-4H-1,2,4-triazole-3-carboxamide]",Rat unbound CL [2]: 44 mL/min/kg; Cyno unbound CL [3]: 40 mL/min/kg
0.1 to 1000 nM,5.3 mL/min/kg,–,"C[C@H]1Oc2cccnc2N(C)C(=O)[C@H]1NC(=O)c1ncn(Cc2cccc(C#N)c2)n1 [Example 172, 1-(3-cyanobenzyl)-N-((2R,3S)-2,5-dimethyl-4-oxo-2,3,4,5-tetrahydropyrido[3,2-b][1,4]oxazepin-3-yl)-1H-1,2,4-triazole-3-carboxamide]",Rat unbound CL [2]: 65 mL/min/kg
0.1 to 1000 nM,4.2 mL/min/kg,–,"CN1C(=O)[C@@H](NC(=O)c2nnc(Cc3ccccc3)o2)COc2cccnc21 [Example 146, (S)-5-benzyl-N-(5-methyl-4-oxo-2,3,4,5-tetrahydropyrido[3,2-b][1,4]oxazepin-3-yl)-1,3,4-oxadiazole-2-carboxamide]",Rat unbound CL [2]: 61 mL/min/kg; Cyno unbound CL [3]: 39 mL/min/kg
–,1.0 mL/min/kg,–,"O=C(N[C@@H]1C(=O)Nc2c(F)cc(F)cc2[C@@H]2C[C@H]12)c1nnc(Cc2ccccc2)[nH]1 [Example 83A, 5-benzyl-N-((1aS,2S,8bR)-5,7-difluoro-3-oxo-1,1a,2,3,4,8b-hexahydrobenzo[b]cyclopropa[d]azepin-2-yl)-4H-1,2,4-triazole-3-carboxamide]",Cyno unbound CL [3]: 82 mL/min/kg
–,–,> 10000 nM,"CN1C(=O)[C@@H](NC(=O)c2ccc(C#N)n2C)COc2ccccc21 [Example 24, (S)-5-cyano-1-methyl-N-(5-methyl-4-oxo-2,3,4,5-tetrahydrobenzo[b][1,4]oxazepin-3-yl)-1H-pyrrole-2-carboxamide]",–
0.1 to 1000 nM,0 mL/min/kg,–,"CN1C(=O)[C@@H](NC(=O)c2nnc(Cc3cccc(C#N)c3)[nH]2)COc2cccnc21 [Example 161, (S)-5-(3-cyanobenzyl)-N-(5-methyl-4-oxo-2,3,4,5-tetrahydropyrido[3,2-b][1,4]oxazepin-3-yl)-4H-1,2,4-triazole-3-carboxamide]",–
–,9.1 mL/min/kg,–,"CN1C(=O)[C@@H](NC(=O)c2nnc(Cc3ccccc3)[nH]2)[C@H]2C[C@H]2c2cccnc21 [Example 75A, 5-benzyl-N-((1aS,2S,8bR)-4-methyl-3-oxo-1,1a,2,3,4,8b-hexahydrocyclopropa[d]pyrido[2,3-b]azepin-2-yl)-4H-1,2,4-triazole-3-carboxamide]",Rat unbound CL [2]: 91 mL/min/kg; Cyno unbound CL [3]: 93 mL/min/kg
–,–,> 10000 nM,"CC(=O)N[C@H]1COc2ccccc2N(C)C1=O [Example 26, (S)—N-(5-methyl-4-oxo-2,3,4,5-tetrahydrobenzo[b][1,4]oxazepin-3-yl)acetamide]",–
0.1 to 1000 nM,11 mL/min/kg,–,"[2H]C([2H])([2H])N1C(=O)[C@@H](NC(=O)c2nn(Cc3ccccc3)cc2F)[C@@H](C)Oc2ncccc21 [Example 205, 1-benzyl-N-((3S,4R)-1-trideuteriomethyl-4-methyl-2-oxo-1,2,3,4-tetrahydropyrido[2,3-b][1,4]oxazepin-3-yl)-4-fluoro-1H-pyrazole-3-carboxamide]",–
–,–,> 10000 nM,"CN1CCCC[C@H](NC(=O)c2nnc(Cc3ccccc3)[nH]2)C1=O [Example 23, (S)-5-benzyl-N-(1-methyl-2-oxoazepan-3-yl)-4H-1,2,4-triazole-3-carboxamide]",–
0.1 to 1000 nM,3.1 mL/min/kg,–,"N#Cc1cccc(Cn2cc(F)c(C(=O)N[C@@H]3C(=O)Nc4c(F)cc(F)cc4[C@@H]4C[C@H]34)n2)c1 [Example 170A, 1-(3-cyanobenzyl)-N-((1aS,2S,8bR)-5,7-difluoro-3-oxo-1,1a,2,3,4,8b-hexahydrobenzo[b]cyclopropa[d]azepin-2-yl)-4-fluoro-1H-pyrazole-3-carboxamide]",–

# Further lines, the compound ahead of its results:
SMILES,IC50 (GST-hRIPK1 (8-327) [1]),Human hepatocyte CLhep Avg [4],IC50 (GST-hRIPK1 (8-327) [5]),further results
"O=C(N[C@H]1COC[C@@H]2CCCN2C1=O)c1cc(Cc2ccccc2)on1 [Example 22, 5-benzyl-N-((4S,9aS)-5-oxohexahydro-1H,3H-pyrrolo[2,1-c][1,4]oxazepin-4-yl)isoxazole-3-carboxamide]",–,–,> 10000 nM,–
"Cc1nnc(C(=O)N[C@H]2COc3ccccc3N(C)C2=O)[nH]1 [Example 25, (S)-5-methyl-N-(5-methyl-4-oxo-2,3,4,5-tetrahydrobenzo[b][1,4]oxazepin-3-yl)-4H-1,2,4-triazole-3-carboxamide]",–,–,> 10000 nM,–
"CN1C(=O)[C@@H](NCC(=O)NCc2ccccc2)COc2ccccc21 [Example 18, (S)—N-benzyl-2-((5-methyl-4-oxo-2,3,4,5-tetrahydrobenzo[b][1,4]oxazepin-3-yl)amino)acetamide]",–,–,> 10000 nM,–
"Cc1cc(C(=O)N[C@H]2COc3ccccc3N(C)C2=O)n(Cc2ccccc2)n1 [Example 16, (S)-1-benzyl-3-methyl-N-(5-methyl-4-oxo-2,3,4,5-tetrahydrobenzo[b][1,4]oxazepin-3-yl)-1H-pyrazole-5-carboxamide]",–,–,> 10000 nM,–
"O=C(NC1CCc2ccccc2CC1)c1cc(Cc2ccccc2)on1 [Example 15, 5-benzyl-N-(6,7,8,9-tetrahydro-5H-benzo[7]annulen-7-yl)isoxazole-3-carboxamide]",–,–,> 10000 nM,–
"O=C(N[C@H]1COC[C@@H]2CCCN2C1=O)c1nnc(Cc2ccccc2)[nH]1 [Example 27, 5-benzyl-N-((4S,9aS)-5-oxohexahydro-1H,3H-pyrrolo[2,1-c][1,4]oxazepin-4-yl)-4H-1,2,4-triazole-3-carboxamide]",–,–,> 10000 nM,–
"C[C@H]1Oc2cccnc2N(C)C(=O)[C@H]1NC(=O)c1nn(Cc2ccccc2)cc1F [Example 92, 1-benzyl-N-((2R,3S)-2,5-dimethyl-4-oxo-2,3,4,5-tetrahydropyrido[3,2-b][1,4]oxazepin-3-yl)-4-fluoro-1H-pyrazole-3-carboxamide]",0.1 to 1000 nM,–,–,Rat unbound CL [2]: 420 mL/min/kg
"CN1CC(NC(=O)c2nnc(Cc3ccccc3)[nH]2)CCc2ccccc21 (stereo not drawn) [Example 20, 5-benzyl-N-(1-methyl-2,3,4,5-tetrahydro-1H-benzo[b]azepin-3-yl)-4H-1,2,4-triazole-3-carboxamide]",–,–,1000 to 10000 nM,–
"CN1C(=O)[C@@H](NC(=O)c2cc(Cc3ccccc3)on2)COc2ccccc21 [C, reference compound]",–,19 mL/min/kg,–,IC50 [6]: 1 nM
"CN1C(=O)[C@@H](NC(=O)c2cnn3c2[C@@H](c2ccccc2)CC3)COc2ccccc21 [Example 17, (R)—N—((S)-5-methyl-4-oxo-2,3,4,5-tetrahydrobenzo[b][1,4]oxazepin-3-yl)-4-phenyl-5,6-dihydro-4H-pyrrolo[1,2-b]pyrazole-3-carboxamide]",–,–,> 10000 nM,–
"CCN1C(=O)[C@@H](NC(=O)c2cc(Cc3ccccc3)on2)COc2ccccc21 [Example 19, (S)-5-benzyl-N-(5-ethyl-4-oxo-2,3,4,5-tetrahydrobenzo[b][1,4]oxazepin-3-yl)isoxazole-3-carboxamide]",–,–,1000 to 10000 nM,–
"O=C(N[C@H]1COC[C@H]2CCCN2C1=O)c1cc(Cc2ccccc2)on1 [Example 21, 5-benzyl-N-((4S,9aR)-5-oxohexahydro-1H,3H-pyrrolo[2,1-c][1,4]oxazepin-4-yl)isoxazole-3-carboxamide]",–,–,> 10000 nM,–
